Reference: ChEMBL document CHEMBL3244272, “Folate antagonists. 15. 2,3-Diamino-6-(2-naphthylsulfonyl)quinazoline and related 2,4-diamino-6-[(phenyl and naphthyl)sulfinyl and sulfonyl]quinazolines, a potent new class of antimetabolites with phenomenal antimalarial activity” (J Med Chem, 1979)
Values after ≈ are worked out from the molar mass of the structure shown.

Tests used:
Format in all cases: functional
Plasmodium berghei [1] = assay: Antimalarial activity against trophozoite-induced Plasmodium berghei infected in mouse assessed as change in mean survival time at 20 mg/kg, sc single dose after 72 hrs of infection; conditions: route subcutaneous
Plasmodium berghei [2] = assay: Antimalarial activity against trophozoite-induced Plasmodium berghei infected in mouse assessed as change in mean survival time at 10 mg/kg, sc single dose after 72 hrs of infection; conditions: route subcutaneous
Shigella sonnei = assay: Antibacterial activity against Shigella sonnei C-10 assessed as growth inhibition
Plasmodium berghei [3] = assay: Antimalarial activity against trophozoite-induced Plasmodium berghei infected in mouse assessed as change in mean survival time at 2.5 mg/kg, sc single dose after 72 hrs of infection; conditions: route subcutaneous
Staphylococcus aureus [4] = assay: Antibacterial activity against Staphylococcus aureus S18713 assessed as growth inhibition
Plasmodium berghei [5] = assay: Antimalarial activity against trophozoite-induced Plasmodium berghei infected in sc dosed mouse assessed as minimum curative dose
[6] = system: Mycobacterium tuberculosis; assay: Antibacterial activity against Mycobacterium tuberculosis H37Rv assessed as growth inhibition
Plasmodium berghei [7] = assay: Antimalarial activity against trophozoite-induced Plasmodium berghei infected in mouse assessed as change in mean survival time at 5 mg/kg, sc single dose after 72 hrs of infection; conditions: route subcutaneous
Plasmodium berghei [8] = assay: Antimalarial activity against trophozoite-induced Plasmodium berghei infected in mouse assessed as change in mean survival time at 1.25 mg/kg, sc single dose after 72 hrs of infection; conditions: route subcutaneous
Plasmodium falciparum [9] = assay: Antimalarial activity against chloroquine-sensitive, pyrimethamine-resistant Plasmodium falciparum Malayan Camp CH/Q infected in Aotus monkey assessed as dose required to >50% cures compound treated for 7 days
Escherichia coli = assay: Antibacterial activity against Escherichia coli Vogel assessed as growth inhibition
Staphylococcus aureus [10] = assay: Antibacterial activity against Staphylococcus aureus UC-76 assessed as growth inhibition
Enterococcus faecalis = assay: Antibacterial activity against Streptococcus faecalis MGH-2 assessed as growth inhibition
Pseudomonas aeruginosa = assay: Antibacterial activity against Pseudomonas aeruginosa 28 assessed as growth inhibition
Plasmodium falciparum [11] = assay: Antimalarial activity against chloroquine-resistant, pyrimethamine-sensitive Plasmodium falciparum Vietnam Oak Knoll in Aotus monkey assessed as dose required to >50% cures compound treated for 7 days
Plasmodium berghei [12] = assay: Antimalarial activity against trophozoite-induced Plasmodium berghei infected in mouse assessed as change in mean survival time at 80 mg/kg, sc single dose after 72 hrs of infection; conditions: route subcutaneous
Plasmodium berghei [13] = assay: Antimalarial activity against trophozoite-induced Plasmodium berghei infected in mouse assessed as change in mean survival time at 40 mg/kg, sc single dose after 72 hrs of infection; conditions: route subcutaneous
Plasmodium berghei [14] = assay: Antimalarial activity against trophozoite-induced Plasmodium berghei infected in mouse assessed as change in mean survival time at 320 mg/kg, sc single dose after 72 hrs of infection; conditions: route subcutaneous
Plasmodium berghei [15] = assay: Antimalarial activity against trophozoite-induced Plasmodium berghei infected in mouse assessed as change in mean survival time at 160 mg/kg, sc single dose after 72 hrs of infection; conditions: route subcutaneous
Plasmodium gallinaceum [16] = assay: Antimalarial activity against cycloguanil-resistant Plasmodium gallinaceum infected in mouse assessed as dose required to suppress parasitemia by 90% compound treated through gavage for 3 days
Plasmodium gallinaceum [17] = assay: Antimalarial activity against cycloguanil-resistant Plasmodium gallinaceum infected in mouse assessed as dose required to suppress parasitemia by 90% compound treated through gavage for 3 days relative to parent strain

| Structure (SMILES) | MST (Plasmodium berghei [1]) [days] | MST (Plasmodium berghei [2]) [days] | MIC (Shigella sonnei) [µg/mL] | MST (Plasmodium berghei [3]) [days] | MIC (Staphylococcus aureus [4]) [µg/mL] | MCD (Plasmodium berghei [5]) [mg/kg] | MIC [6] [µg/mL] | MST (Plasmodium berghei [7]) [days] | MIC (Escherichia coli) [µg/mL] | MIC (Staphylococcus aureus [10]) [µg/mL] | MIC (Enterococcus faecalis) [µg/mL] | MIC (Pseudomonas aeruginosa) [µg/mL] | MST (Plasmodium berghei [12]) [days] | MST (Plasmodium berghei [13]) [days] | other results |
| --- | --- | --- | --- | --- | --- | --- | --- | --- | --- | --- | --- | --- | --- | --- | --- |
| Nc1nc(N)c2cc(S(=O)(=O)c3cccc(C(F)(F)F)c3)ccc2n1 | 13.9 | 11.6 | > 25 | 1.5 | 2 (≈ 5.43 µM) | 40 | 25 (≈ 67.9 µM) | 7.7 | > 25 | 1.5 (≈ 4.07 µM) | 0.25 (≈ 0.679 µM) | > 25 | – | – | MST (Plasmodium berghei [8]): 0.5 days; Activity (Plasmodium falciparum [9]): 1.56 mg/kg; Activity (Plasmodium falciparum [11]): 0.39 mg/kg |
| Nc1nc(N)c2cc([S+]([O-])c3cccc(-c4ccccc4)c3)ccc2n1 (stereo unspecified) | 11.1 | 6.7 | > 25 | 1.1 | < 0.25 | 40 | – | 4.1 | > 25 | < 0.25 | < 0.25 | > 25 | 22.9 | 18.9 | MST (Plasmodium berghei [8]): 0.5 days |
| COc1cc(Cc2cnc(N)nc2N)cc(OC)c1OC [TRIMETHOPRIM] | – | – | < 0.25 | – | < 0.25 | – | > 25 | – | < 0.25 | < 0.25 | < 0.25 | > 25 | – | – | – |
| Cc1cc(S(=O)(=O)c2ccc3nc(N)nc(N)c3c2)ccc1Br | 1.5 | 0.5 | – | – | – | 80 | – | – | – | – | – | – | 10.5 | 5.9 | MST (Plasmodium berghei [14]): 18.9 days; MST (Plasmodium berghei [15]): 17.4 days |
| Nc1nc(N)c2cc([S+]([O-])c3ccc(Cl)c(Cl)c3)ccc2n1 (stereo unspecified) | 15.9 | 8.7 | > 25 | 4.1 | > 25 | 10 | – | 7.9 | > 25 | > 25 | < 0.25 | > 25 | – | 21.9 | MST (Plasmodium berghei [8]): 1.1 days |
| Nc1nc(N)c2c(Cl)c([S+]([O-])c3ccc4ccccc4c3)ccc2n1 (stereo unspecified) | 9.3 | – | > 25 | – | > 25 | 5 | > 25 | – | > 25 | > 25 | < 0.25 | > 25 | – | 23.9 | – |
| Nc1nc(N)c2c(Cl)c([S+]([O-])c3ccc(F)cc3)ccc2n1 (stereo unspecified) | 4.1 | – | < 0.25 | – | 1 (≈ 2.97 µM) | 40 | 2.5 (≈ 7.42 µM) | – | < 0.25 | < 0.25 | < 0.25 | > 25 | 27.9 | 20.9 | – |
| Nc1nc(N)c2c(Cl)c(S(=O)(=O)c3ccc4ccccc4c3)ccc2n1 | 0.7 | – | > 25 | – | > 25 | 5 | > 25 | – | > 25 | > 25 | < 0.25 | > 25 | 7.1 | 4.7 | MST (Plasmodium berghei [14]): 13.3 days; MST (Plasmodium berghei [15]): 11.5 days |
| Nc1nc(N)c2cc([S+]([O-])c3ccc4ccccc4c3)ccc2n1 (stereo unspecified) | – | 31.9 | 2.5 (≈ 7.48 µM) | 10.9 | < 0.25 | 20 | – | 14.2 | < 0.25 | < 0.25 | < 0.25 | > 25 | – | – | Activity (Plasmodium gallinaceum [16]): 0.1 mg/kg; MST (Plasmodium berghei [8]): 6.7 days; Activity (Plasmodium falciparum [9]): 0.78 mg/kg; fold change (FC) (Plasmodium gallinaceum [17]): 0; Activity (Plasmodium falciparum [11]): 0.39 mg/kg |
| Nc1nc(N)c2cc(Sc3cccc(C(F)(F)F)c3)ccc2n1 [WR-159412] | – | – | – | – | – | – | – | – | – | – | – | – | – | – | Activity (Plasmodium falciparum [9]): 0.39 mg/kg; Activity (Plasmodium falciparum [11]): 0.098 mg/kg |
| Nc1nc(N)c2c(Cl)c([S+]([O-])c3ccccc3)ccc2n1 (stereo unspecified) | 8.5 | – | – | – | – | 640 | – | – | – | – | – | – | 17.9 | 12.9 | – |
| Nc1nc(N)c2cc(S(=O)(=O)c3cccc4ccccc34)ccc2n1 | 2.9 | 0.7 | > 25 | – | > 25 | 80 | > 25 | – | > 25 | > 25 | > 25 | > 25 | 5.5 | 3.5 | MST (Plasmodium berghei [14]): 14.4 days; MST (Plasmodium berghei [15]): 14.3 days |
| Nc1nc(N)c2cc(Sc3ccc4ccccc4c3)ccc2n1 | – | – | – | – | – | – | – | – | – | – | – | – | – | – | Activity (Plasmodium gallinaceum [16]): <1.6 mg/kg; Activity (Plasmodium falciparum [9]): 3.125 mg/kg; fold change (FC) (Plasmodium gallinaceum [17]): 0; Activity (Plasmodium falciparum [11]): 1.56 mg/kg |
| Nc1nc(N)c2cc(S(=O)(=O)c3ccc(F)cc3)ccc2n1 | – | 12.9 | – | 6.9 | – | 20 | – | 13.6 | – | – | – | – | – | – | Activity (Plasmodium gallinaceum [16]): 0.6 mg/kg; MST (Plasmodium berghei [8]): 4.1 days; fold change (FC) (Plasmodium gallinaceum [17]): 3 |
| CN(C)c1ccc(Sc2ccc3nc(N)nc(N)c3c2)cc1 | – | – | – | – | – | – | – | – | – | – | – | – | – | – | Activity (Plasmodium gallinaceum [16]): 0.9 mg/kg; Activity (Plasmodium falciparum [9]): 2.5 mg/kg; fold change (FC) (Plasmodium gallinaceum [17]): 0; Activity (Plasmodium falciparum [11]): 1.25 mg/kg |
| Nc1nc(N)c2c(Cl)c(S(=O)(=O)c3ccc(F)cc3)ccc2n1 | 9.7 | 9.3 | > 25 | 0.5 | > 25 | 40 | > 25 | 4.1 | 10 (≈ 28.3 µM) | 2 (≈ 5.67 µM) | < 0.25 | > 25 | 26.9 | 13.4 | MST (Plasmodium berghei [8]): 0.5 days |
| Nc1nc(N)c2c(Cl)c([S+]([O-])c3ccccc3Cl)ccc2n1 (stereo unspecified) | 8.6 | – | > 25 | – | > 25 | 40 | > 25 | – | > 25 | 2 (≈ 5.66 µM) | < 0.25 | > 25 | – | – | – |
| Nc1nc(N)c2c(Cl)c([S+]([O-])c3cccc(C(F)(F)F)c3)ccc2n1 (stereo unspecified) | 0.5 | – | – | – | – | 40 | – | – | – | – | – | – | 1.1 | – | MST (Plasmodium berghei [14]): 1.5 days |
| Nc1nc(N)c2cc([S+]([O-])c3ccc(Br)cc3)ccc2n1 (stereo unspecified) | 13.6 | 10.1 | > 25 | 3.3 | < 0.25 | 10 | – | 6.7 | 2.5 (≈ 6.88 µM) | < 0.25 | < 0.25 | > 25 | – | 20.9 | – |
| Nc1nc(N)c2cc([S+]([O-])c3cccc4ccccc34)ccc2n1 (stereo unspecified) | 1.9 | 1.1 | > 25 | – | > 25 | 80 | – | – | > 25 | > 25 | > 25 | > 25 | 13.7 | 7.9 | MST (Plasmodium berghei [14]): 16.4 days; MST (Plasmodium berghei [15]): 15.2 days |
| Nc1nc(N)c2cc(S(=O)(=O)c3ccccc3)ccc2n1 | 7.7 | 5.1 | – | 0.3 | – | 160 | – | 0.3 | – | – | – | – | 12.6 | 12.1 | – |
| Nc1nc(N)c2cc(Sc3ccc(Br)cc3)ccc2n1 | – | – | – | – | – | – | – | – | – | – | – | – | – | – | Activity (Plasmodium gallinaceum [16]): <1.6 mg/kg; fold change (FC) (Plasmodium gallinaceum [17]): <4 |
| Nc1nc(N)c2c(Cl)c(S(=O)(=O)c3cccc(C(F)(F)F)c3)ccc2n1 | 0.7 | 0.5 | > 25 | – | > 25 | 40 | > 25 | – | > 25 | > 25 | < 0.25 | > 25 | 1.1 | 0.7 | MST (Plasmodium berghei [14]): 4.7 days; MST (Plasmodium berghei [15]): 3.7 days |
| Nc1nc(N)c2cc(Sc3ccc(Cl)c(Cl)c3)ccc2n1 | – | – | – | – | – | – | – | – | – | – | – | – | – | – | Activity (Plasmodium gallinaceum [16]): <0.4 mg/kg; fold change (FC) (Plasmodium gallinaceum [17]): 0 |
| Nc1nc(N)c2c(Cl)c(S(=O)(=O)c3ccccc3)ccc2n1 | 11.9 | – | 2 (≈ 5.97 µM) | – | 2 (≈ 5.97 µM) | 640 | > 25 | – | 2 (≈ 5.97 µM) | 2 (≈ 5.97 µM) | < 0.25 | > 25 | – | 22.4 | – |
| Nc1nc(N)c2cc(S(=O)(=O)c3ccc(Br)cc3)ccc2n1 | 9.9 | 13.1 | > 25 | 6.5 | < 0.25 | 10 | – | 10.3 | 2.5 (≈ 6.59 µM) | < 0.25 | < 0.25 | > 25 | – | – | Activity (Plasmodium gallinaceum [16]): <1.6 mg/kg; fold change (FC) (Plasmodium gallinaceum [17]): <3 |
